Data from PubChem BioAssay (NCI).
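Results reflect a 48-hour exposure of cells in 96-well plates to compound at five concentrations. TGI is the concentration that stops growth completely.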

Key:
Assay in all cases: DTP human tumour cell line panel, 48 h
M14 melanoma = test system: M14 melanoma
COLO 205 colon = test system: COLO 205 colon
TK-10 renal = test system: TK-10 renal
DLD-1 colon = test system: DLD-1 colon
DMS 114 small cell lung = test system: DMS 114 small cell lung
SK-OV-3 ovarian = test system: SK-OV-3 ovarian
K-562 leukemia = test system: K-562 leukemia
SK-MEL-5 melanoma = test system: SK-MEL-5 melanoma
M19-MEL melanoma = test system: M19-MEL melanoma
UACC-257 melanoma = test system: UACC-257 melanoma
UO-31 renal = test system: UO-31 renal
U251 CNS = test system: U251 CNS
HT29 colon = test system: HT29 colon
SNB-78 CNS = test system: SNB-78 CNS
NCI-H226 lung = test system: NCI-H226 lung
NCI-H522 lung = test system: NCI-H522 lung
SN12C renal = test system: SN12C renal
SNB-19 CNS = test system: SNB-19 CNS
A498 renal = test system: A498 renal
SW-620 colon = test system: SW-620 colon
HCC-2998 colon = test system: HCC-2998 colon
OVCAR-5 ovarian = test system: OVCAR-5 ovarian
HL-60(TB) leukemia = test system: HL-60(TB) leukemia
EKVX NSCLC = test system: EKVX NSCLC
NCI-H460 lung = test system: NCI-H460 lung
786-0 renal = test system: 786-0 renal
ACHN renal = test system: ACHN renal
SF-268 CNS = test system: SF-268 CNS
LOX IMVI melanoma = test system: LOX IMVI melanoma
MOLT-4 leukemia = test system: MOLT-4 leukemia
OVCAR-4 ovarian = test system: OVCAR-4 ovarian
A549 NSCLC = test system: A549 NSCLC
HOP-92 NSCLC = test system: HOP-92 NSCLC
OVCAR-8 ovarian = test system: OVCAR-8 ovarian
LXFL 529 NSCLC = test system: LXFL 529 NSCLC
SNB-75 CNS = test system: SNB-75 CNS
SF-539 CNS = test system: SF-539 CNS
SK-MEL-28 melanoma = test system: SK-MEL-28 melanoma
DMS 273 small cell lung = test system: DMS 273 small cell lung
RXF 393 renal = test system: RXF 393 renal
SF-295 CNS = test system: SF-295 CNS
XF 498 CNS = test system: XF 498 CNS
RPMI-8226 leukemia = test system: RPMI-8226 leukemia
SK-MEL-2 melanoma = test system: SK-MEL-2 melanoma
NCI-H23 lung = test system: NCI-H23 lung
IGROV1 ovarian = test system: IGROV1 ovarian
CCRF-CEM leukemia = test system: CCRF-CEM leukemia
KM12 colon = test system: KM12 colon
OVCAR-3 ovarian = test system: OVCAR-3 ovarian
MALME-3M melanoma = test system: MALME-3M melanoma
KM20L2 colon = test system: KM20L2 colon
CAKI-1 renal = test system: CAKI-1 renal
HOP-62 NSCLC = test system: HOP-62 NSCLC
HCT-15 colon = test system: HCT-15 colon
HCT-116 colon = test system: HCT-116 colon
UACC-62 melanoma = test system: UACC-62 melanoma
HOP-18 NSCLC = test system: HOP-18 NSCLC
SR leukemia = test system: SR leukemia

## CCOc1ccccc1NC(=O)C1=C(C)NC(C)=C(C(=O)Nc2ccccc2OCC)C1c1cccc([N+](=O)[O-])c1
M14 melanoma
  TGI: > 100 µM
COLO 205 colon
  TGI: > 100 µM
TK-10 renal
  TGI: > 100 µM
DLD-1 colon
  TGI: > 100 µM
DMS 114 small cell lung
  TGI: > 100 µM
SK-OV-3 ovarian
  TGI: > 100 µM
K-562 leukemia
  TGI: > 100 µM
SK-MEL-5 melanoma
  TGI: > 100 µM
M19-MEL melanoma
  TGI: > 100 µM
UACC-257 melanoma
  TGI: > 100 µM
UO-31 renal
  TGI: > 100 µM
U251 CNS
  TGI: > 100 µM
HT29 colon
  TGI: > 100 µM
SNB-78 CNS
  TGI: > 100 µM
NCI-H226 lung
  TGI: > 100 µM
NCI-H522 lung
  TGI: > 100 µM
SN12C renal
  TGI: > 100 µM
SNB-19 CNS
  TGI: > 100 µM
A498 renal
  TGI: > 100 µM
SW-620 colon
  TGI: > 100 µM
HCC-2998 colon
  TGI: > 100 µM
OVCAR-5 ovarian
  TGI: > 100 µM
HL-60(TB) leukemia
  TGI: > 100 µM
EKVX NSCLC
  TGI: > 100 µM
NCI-H460 lung
  TGI: > 100 µM
786-0 renal
  TGI: > 100 µM
ACHN renal
  TGI: > 100 µM
SF-268 CNS
  TGI: > 100 µM
LOX IMVI melanoma
  TGI: > 100 µM
MOLT-4 leukemia
  TGI: > 100 µM
OVCAR-4 ovarian
  TGI: > 100 µM
A549 NSCLC
  TGI: > 100 µM
HOP-92 NSCLC
  TGI: 41.3 µM
OVCAR-8 ovarian
  TGI: > 100 µM
LXFL 529 NSCLC
  TGI: > 100 µM
SNB-75 CNS
  TGI: 89.3 µM
SF-539 CNS
  TGI: > 100 µM
SK-MEL-28 melanoma
  TGI: > 100 µM
DMS 273 small cell lung
  TGI: > 100 µM
RXF 393 renal
  TGI: > 100 µM
SF-295 CNS
  TGI: > 100 µM
XF 498 CNS
  TGI: > 100 µM
RPMI-8226 leukemia
  TGI: > 100 µM
SK-MEL-2 melanoma
  TGI: > 100 µM
NCI-H23 lung
  TGI: > 100 µM
IGROV1 ovarian
  TGI: > 100 µM
CCRF-CEM leukemia
  TGI: > 100 µM
KM12 colon
  TGI: > 100 µM
OVCAR-3 ovarian
  TGI: > 100 µM
MALME-3M melanoma
  TGI: > 100 µM
KM20L2 colon
  TGI: > 100 µM
CAKI-1 renal
  TGI: > 100 µM
HOP-62 NSCLC
  TGI: > 100 µM

## CC1(C2CCC3(C)C(C2)C3Sc2ccccc2)OCCO1 (stereo not drawn)
M14 melanoma
  TGI: > 100 µM
COLO 205 colon
  TGI: 35.8 µM
TK-10 renal
  TGI: > 100 µM
DLD-1 colon
  TGI: 92.2 µM
DMS 114 small cell lung
  TGI: 47.1 µM
SK-OV-3 ovarian
  TGI: 88.6 µM
K-562 leukemia
  TGI: 43.7 µM
SK-MEL-5 melanoma
  TGI: 34 µM
M19-MEL melanoma
  TGI: 40.6 µM
UACC-257 melanoma
  TGI: 41.5 µM
UO-31 renal
  TGI: 31.4 µM
U251 CNS
  TGI: 42.8 µM
HT29 colon
  TGI: 41.4 µM
SNB-78 CNS
  TGI: > 100 µM
NCI-H522 lung
  TGI: 40.9 µM
SN12C renal
  TGI: 46.8 µM
SNB-19 CNS
  TGI: 82.6 µM
A498 renal
  TGI: 36.4 µM
SW-620 colon
  TGI: 50.1 µM
HCC-2998 colon
  TGI: 39.2 µM
OVCAR-5 ovarian
  TGI: 49.9 µM
HL-60(TB) leukemia
  TGI: 29.7 µM
EKVX NSCLC
  TGI: 66.2 µM
NCI-H460 lung
  TGI: 46.5 µM
786-0 renal
  TGI: 33.3 µM
ACHN renal
  TGI: 46.9 µM
SF-268 CNS
  TGI: > 100 µM
LOX IMVI melanoma
  TGI: 49.6 µM
MOLT-4 leukemia
  TGI: 38.4 µM
OVCAR-4 ovarian
  TGI: 81.7 µM
A549 NSCLC
  TGI: 68 µM
HOP-92 NSCLC
  TGI: 56 µM
OVCAR-8 ovarian
  TGI: > 100 µM
LXFL 529 NSCLC
  TGI: > 100 µM
SNB-75 CNS
  TGI: > 100 µM
HCT-15 colon
  TGI: > 100 µM
HCT-116 colon
  TGI: 34 µM
SF-539 CNS
  TGI: 67.3 µM
SK-MEL-28 melanoma
  TGI: 63.6 µM
DMS 273 small cell lung
  TGI: 60 µM
RXF 393 renal
  TGI: 32.4 µM
SF-295 CNS
  TGI: 46.5 µM
XF 498 CNS
  TGI: 40.7 µM
RPMI-8226 leukemia
  TGI: 32.7 µM
SK-MEL-2 melanoma
  TGI: 34.3 µM
NCI-H23 lung
  TGI: 66.3 µM
IGROV1 ovarian
  TGI: > 100 µM
CCRF-CEM leukemia
  TGI: 40.3 µM
KM12 colon
  TGI: 79.2 µM
UACC-62 melanoma
  TGI: 43.1 µM
OVCAR-3 ovarian
  TGI: 30 µM
MALME-3M melanoma
  TGI: 41.8 µM
CAKI-1 renal
  TGI: 51.4 µM
HOP-62 NSCLC
  TGI: 45.8 µM

## CC1=CC(=O)N2C(OC[C@@H]2c2ccccc2)O1 (stereo partly drawn)
M14 melanoma
  TGI: > 100 µM
COLO 205 colon
  TGI: > 100 µM
TK-10 renal
  TGI: > 100 µM
DLD-1 colon
  TGI: > 100 µM
SK-OV-3 ovarian
  TGI: > 100 µM
K-562 leukemia
  TGI: > 100 µM
SK-MEL-5 melanoma
  TGI: > 100 µM
M19-MEL melanoma
  TGI: > 100 µM
UACC-257 melanoma
  TGI: > 100 µM
UO-31 renal
  TGI: > 100 µM
U251 CNS
  TGI: > 100 µM
HT29 colon
  TGI: > 100 µM
NCI-H226 lung
  TGI: > 100 µM
NCI-H522 lung
  TGI: > 100 µM
HOP-18 NSCLC
  TGI: > 100 µM
SN12C renal
  TGI: > 100 µM
SNB-19 CNS
  TGI: > 100 µM
SW-620 colon
  TGI: > 100 µM
HL-60(TB) leukemia
  TGI: > 100 µM
EKVX NSCLC
  TGI: > 100 µM
NCI-H460 lung
  TGI: > 100 µM
786-0 renal
  TGI: > 100 µM
ACHN renal
  TGI: > 100 µM
SF-268 CNS
  TGI: > 100 µM
MOLT-4 leukemia
  TGI: > 100 µM
OVCAR-4 ovarian
  TGI: > 100 µM
A549 NSCLC
  TGI: > 100 µM
HOP-92 NSCLC
  TGI: > 100 µM
OVCAR-8 ovarian
  TGI: > 100 µM
LXFL 529 NSCLC
  TGI: > 100 µM
SNB-75 CNS
  TGI: > 100 µM
HCT-15 colon
  TGI: > 100 µM
HCT-116 colon
  TGI: > 100 µM
SF-539 CNS
  TGI: > 100 µM
SK-MEL-28 melanoma
  TGI: > 100 µM
RXF 393 renal
  TGI: > 100 µM
SF-295 CNS
  TGI: > 100 µM
XF 498 CNS
  TGI: > 100 µM
RPMI-8226 leukemia
  TGI: > 100 µM
SK-MEL-2 melanoma
  TGI: > 100 µM
NCI-H23 lung
  TGI: > 100 µM
IGROV1 ovarian
  TGI: > 100 µM
CCRF-CEM leukemia
  TGI: > 100 µM
KM12 colon
  TGI: > 100 µM
UACC-62 melanoma
  TGI: > 100 µM
OVCAR-3 ovarian
  TGI: > 100 µM
MALME-3M melanoma
  TGI: > 100 µM
KM20L2 colon
  TGI: > 100 µM
CAKI-1 renal
  TGI: > 100 µM
HOP-62 NSCLC
  TGI: > 100 µM
SR leukemia
  TGI: > 100 µM
